Experimental data published in patent US20230241044A1, “TREATMENT FOR PSORIASIS AND SKIN INFLAMMATORY DISEASES” (ZYDUS LIFESCIENCES LIMITED, priority 2020, published 2023).

Legend:
[1] = test system: IMQ-induced psoriasis-like skin lesions in mice; experiment: Imiquimod-induced psoriasis in mice, topical treatment; format: in vivo, male C57 mice; details: topical 5% solution
Procedure: The 8 to 10 week old male C57 mice (18-20 g) received a daily topical dose of commercially available Imiquimod (IMQ) cream (5%, Imiquad;) on the shaved back and the right ear for 5 consecutive days, translating in a daily dose of 3.125 mg of the active compound to establish a model of IMQ-induced psoriasis. To examine the efficacy of topical solution of compound of formula (Ia), mice were randomly divided into 3 groups: IMQ-induced model group (IMQ) and IMQ + 5% compound of formula (Ia) solution and control group. Treatment was started on day 1 after the topical application of IMQ and continued upto day 5. All animals were assessed for the severity of the psoriasis-like skin condition, using 3 elements of the Psoriasis Area Severity Index (PASI), to assign a score of 0-4 (0, none; 1, mild; 2, moderate; 3, severe; 4, very severe) for each of the parameters erythema, scaling and thickness. The cumulative score (erythema plus scaling plus thickness) served to indicate the severity of inflammation (scale 0-12). Ear thickness was measured every day using thickness meter.

[2] = test system: HIF; details: animal model of anemia; Jain et al., 2019; Joharapurkar et al., 2018; cited from earlier work
[3] = test system: Mannan-induced psoriasis in mice; experiment: Mannan-induced psoriasis in mice, topical treatment; format: in vivo, male C57 mice; details: topical 2.5% solution, day 5, FIG. 3
Procedure: The 8- to 10-week-old male C57 mice (18-20 g) received a single dose of mannan from Saccharomyces cerevisiae (20 mg/kg, intraperitoneal route, dissolved in saline). To examine the efficacy of topical solution of desidustat, mice were randomly divided into 3 groups: Normal control, mannan control- model group (MAN control), and mannan (MAN) + 2.5% compound of formula (Ia) solution. Normal control animals were given normal saline instead of mannan. Treatment was started on day 0 along with injection of mannan and continued up to day 5. Right ear thickness was measured every day using thickness meter.

[4] = clinical trials; cited from earlier work

## O=C(O)CNC(=O)c1c(O)c2ccccc2n(OCC2CC2)c1=O [compound of formula (Ia), Desidustat]
[1]; FIG. 2B
  reduction of back skinfold thickness compared to IMQ: 15.5 ± 4.0%
[1]; cumulative score, FIG. 1D
  PASI score decreased to, compared with IMQ-control: 41.9 ± 7.6%
[1]; day 1 to day 5, FIG. 1A-C
  reduction of erythema score (second mention) compared with IMQ-control: 63.6 ± 11.5%
  reduction of erythema score compared with IMQ-control: 46.2 ± 7.7%
  reduction of skin thickness score compared with IMQ-control: 26.3 ± 10.4%
[1]; right ear, FIG. 2A
  thickening of the ear reduced to, compared to IMQ-control: 30.8 ± 2.6%
[2]
  effect on HIF and erythropoiesis: stabilizes HIF and thus induces erythropoiesis
[3]
  reduction of right ear thickness compared to MAN control group: 15.8 ± 2.5%
[4]
  effect on haemoglobin: improves haemoglobin
